According to patent publication US20230371508A1, “COMPOSITIONS AND METHODS FOR KILLING INSECT AND NON-INSECT PESTS” (The United States of America, as represented by the …, priority 2018, published 2023):
In brackets after ≈: the same amount, converted by molar mass. Entries after “also recorded” stand apart in the source; their conditions may differ. Where two headings read alike, the source gives them in different places.

Experiments:
[1] = system: H. halys eggs; experiment: Ovicidal toxicity, direct spray on eggs; format: in vivo; conditions: eggs sprayed, 10 days
Text: (§1) Ovicidal toxicities of MB and some compounds of formula 1: The aqueous solutions of one of the compounds of formula 1 with designated concentrations with different concentrations of active ingredient (AI) were separately stored in glass spray bottles according to a published procedure (Cuthbertson 2014). The eggs (10 for H. halys and 100 for P. xylostella) were laid on filter papers in Petri dishes. Different aqueous insecticidal solutions were sprayed on the surfaces of different eggs three times (˜0.5 mL) to completely cover the treatment areas. Then the Petri dishes were covered with lids and maintained in a fume hood for 10 days. The Petri dishes were then inspected for presence of nymph/larvae development or numbers of unhatched eggs.

[2] = system: L. dispar larvae; experiment: Larvicidal toxicity, treated filter paper in Petri dish; format: in vivo; conditions: for LC50 (95% CL): 1st stage larvae, 24 hr; for decreased toxicities compared with MB: from LC50 values; for larvicidal toxicity against L. dispar (in words): in vivo
Protocol: Toxicities of MB and some compounds of formula 1 on L. dispar larvae: The bioassays were carried out in plastic Petri dish loaded with filter paper, following a published procedure (Nielsen 2008). 600 μL acetone solution of one derivative with different concentrations was loaded onto the filter paper (90 mm diameter) evenly, and the filter paper was dried for 2 min and then put into the bottom of Petri dish. 10 L. dispar larvae were put onto the Petri dish and covered with a lid. 30 larvae were used for each amount. The mortality was assessed after 24 hr.

[3] = system: S. invicta workers; experiment: Fumigant toxicity in sealed glass flask; format: in vivo, Solenopsis invicta; conditions: for fumigant toxicity against S. invicta (in words): in vivo; for LC50 / mortality at 1.43 µg/mL: Solenopsis invicta
Protocol: A 250-ml glass flask (the whole volume is 280 ml) was used to house worker ants in fumigant toxicity bioassays. Two micro-liter of acetone solution of the tested compound was applied onto a paraffin film, which was used to seal the flask with ants. The treated spot of the paraffin film faced the inside of the flask. The upper part of the flask was coated with Fluon® to prevent ants from contacting the test material. Two experiments were conducted. […] LC50 value was established using 5 dosages. Each dosage was replicated 3 times for each of 3 colonies. Each replicate consisted of 15 to 26 ants. Ants that could not stand by themselves were considered dead. Dead ants were counted after 24 h.

[4] = Release rate (evaporation from cotton ball in tube); format: physicochemical; conditions: room temperature, hood air flow 129 FPM
Protocol: Release rate: Release rate tests of selective compounds were carried out in the laboratory. 1 mL of each compound was loaded on a cotton ball in a polypropylene flex tube (1.5 mL Eppendorf micro-centrifuge tube, VWR International, Radnor, PA). The tubes were hung in the hood with air flow of 129 FPM. At 2 pm on each weekday, the tubes were weighed and recorded (Zhang, A., et al., Environ. Entomol., 37: 719-724 (2008)). Each treatment was replicated 5 times.

[5] = system: D. suzukii; experiment: Insecticidal activity on larvae and pupae development and adult emergence in pre-infested blueberries (dip); format: in vivo, Drosophila suzukii; conditions: for Adults / Larvae / Pupae: pre-infested berries soaked 2 min in 1% solution, assessed after 10 days at room temperature, mean of three replicates (standard error)
Protocol: Impacts of MB and other compounds on D. suzukii control: To investigate the acute toxicity of some compounds of formula 1 against D. suzukii, a published procedure was followed (Cuthbertson, A. G. S., et al., Insects, 5: 488-498 (2014)). First, mixed-sex adults D. suzukii (100) were introduced into a plastic cage (30×30×30 cm) and reared on blueberries (100) for 4 days. After that, the infested blueberries were taken out from the cage. Half of the blueberries (50) were dipped in 100 mL aqueous emulsion of each compound listed in Table 1 at 1% concentration for 2 min as treatment, while the other half of the blueberries (50) were dipped in DI water for 2 min as blank control. Then the corresponding blueberries were separately taken out, placed in two different Petri dishes, and allowed to air dry for 2 h. Second, treatment and blank control blueberries were respectively stored in two plastic cups (32 oz) with closed caps and incubated at room temperature for 10 days. The emergence of adults was then subsequently assessed. The developments of larvae and pupae were further inspected by dissection of the treatment and blank control berries. Each treatment and blank control was repeated three times.

[6] = system: H. halys nymphs; experiment: Nymphicidal toxicity, treated filter paper in glass vial; format: in vivo; conditions: for LC50 (95% CL): 24 hr
Protocol: Toxicities of MB, some compounds of formula 1, and commercial pesticides on H. halys nymphs: The bioassays were carried out in glass vials (20 mL), following a published procedure (Nielsen, A. L., et al., J. Econ. Entomol., 101: 1439-1442 (2008)). Filter paper was cut into round shape pieces (2.4 cm diameter). 50 μL acetone solution of one derivative or commercial pesticide with different concentrations was loaded onto the filter paper evenly, and the filter paper was dried for 1 min and then put into the bottom of vial. A small piece of green bean was put on the filter paper in the vial as food source. Different stages of H. halys nymphs were introduced into the vial and capped with a cotton ball. For each stage, 30 nymphs were used for each amount. For the nymphs of the first instar, 10 nymphs were put into 1 vial. For the nymphs of the second and third instar, 5 nymphs were put into 1 vial. For the nymphs of the fourth instar, 3 nymphs were put into 1 vial. For the nymphs of the fifth instar, 2 nymphs were put into 1 vial. The mortality was assessed after 24 hr.

[7] = system: S. invicta workers; conditions: for increase of mean mortality compared with MB / mean mortality: dose 77.9 μg/ant, 24 h
Protocol: Fire ant bioassays were conducted in USDA, ARS Stoneville laboratory at 25° C., 80% R.H. with a 12:12 (L:D) photoperiod. Contact toxicities of MB and some compounds of formula 1 against fire ants: Topical application was used for contact toxicity bioassay. Only large workers were used for a purpose of relatively uniform body weight and ease of handling. For all compounds, acetone was used as a solvent. The solution was applied using a 0.779 μl capillary tube. Two experiments were conducted for assessing contact toxicity. […] In order to investigate the structure-activity relationship, LD50 values were also established for MB and EB. […] For each LD50 value, 5 doses of benzoates were used. Each dose was replicated 3 times. Each replicate consisted of 13 to 18 ants. Treated ants were placed in a 30-ml capped cup and dead ants were counted after 24 h.

[8] = Sigma-Aldrich SDS; cited from earlier work
[9] = system: H. halys nymphs; conditions: 24 hr, copied from previous research, cited from earlier work
[10] = system: Plutella xylostella eggs; experiment: Ovicidal toxicity, direct spray on eggs; format: in vivo; conditions: hatchability after 10 days; 0.05% and 0.1% concentrations (FIG. 3)
Text: as §1

[11] = 24 h, read-out: mean LC50 value, mean over colonies, 24 h
[12] = 24 h, read-out: mean mortality, dosage 1.43 μg/ml, 24 h

Row | Compound | LC50 (95% CL) [1] | LC50 (95% CL) [2] | decreased toxicities compared with MB [2] | fumigant toxicity against S. invicta (in words) [3] | first order evaporation rate constant k (exponent of fitted curve) [4] | Adults [5] | Larvae [5] | Pupae [5] | LC50 (95% CL) ([6]; 2nd stage nymphs) | LD50 ([7]; colony 1, 24 h) | LD50 ([7]; colony 2, 24 h) | LD50 ([7]; colony 3, 24 h) | increase of mean mortality compared with MB [7] | mean mortality [7] | LC50 ([3]; 24 h, colony 1, 24 h) | LC50 ([3]; 24 h, colony 2, 24 h) | LC50 ([3]; 24 h, colony 3, 24 h) | LC50 [3, 11] | mortality at 1.43 µg/mL [3, 12] | hazard according to Safety Data Sheet (SDS) from the producer [8] | also measured
1 | COC(=O)c1ccccc1OC [M2MOB, methyl 2-methoxybenzoate] | 0.011 (0.006-0.015) mg/cm^2 | 0.230 (0.170-0.294) mg/cm^2 | 50% | significantly reduced | 8E-04 | 0 | 0 | 0 | 1.530 (1.309-1.951) μL/vial | 67.73 μg/ant | 96.43 μg/ant | 78.34 μg/ant | 7 times | 55.74% |  |  |  |  |  |  | 
2 | COC(=O)c1cccc(OC)c1 [M3MOB, methyl 3-methoxybenzoate] | 0.016 (0.008-0.026) mg/cm^2 | 0.234 (0.216-0.258) mg/cm^2 | 50% |  |  | 0 | 0 | 0 |  | 112.72 μg/ant | 81.78 μg/ant | 47.52 μg/ant | 6 times | 47.23% | 0.64 µg/mL (≈ 3.85 µM) | 0.54 µg/mL (≈ 3.25 µM) | 0.65 µg/mL (≈ 3.91 µM) | 0.61 µg/mL (≈ 3.67 µM) | ~100% | not even considered as a hazardous substance | LC50 (95% CL) ([6]; 3rd stage nymphs): 1.509 (1.322-1.792) μL/vial
3 | COC(=O)c1ccccc1 [MB, methyl benzoate] | 0.020 (0.012-0.026) mg/cm^2 | 0.114 (0.091-0.134) mg/cm^2 |  | powerful fumigant toxicities | 0.162 | 0 | 0 | 0 |  | 149.39 μg/ant | 93.65 μg/ant | 128.45 μg/ant |  | 7.67% |  |  |  |  |  |  | LC50 ([3]; 24 h, colony 1, 24 h, read-out: LC50): 0.77 µg/mL (≈ 5.66 µM); LC50 ([3]; 24 h, colony 2, 24 h, read-out: LC50): 0.66 µg/mL (≈ 4.85 µM); LC50 ([3]; 24 h, colony 3, 24 h, read-out: LC50): 0.82 µg/mL (≈ 6.02 µM); mortality at 1.43 µg/mL ([3]; 24 h, dosage 1.43 μg/ml, 24 h, read-out: mean mortality): ~100%; LC50 ([3]; 24 h, mean over colonies, 24 h, read-out: mean LC50 value): 0.75 µg/mL (≈ 5.51 µM); mean mortality ([3]; dosage 1.43 μg/ml, 24 h): 100%; LC50 (95% CL) ([9]; 1st stage nymphs): 1.03 (0.93-1.10) μL/vial; LC50 (95% CL) ([9]; 2nd stage nymphs): 1.01 (0.86-1.12) μL/vial; LC50 (95% CL) ([9]; 3rd stage nymphs): 1.23 (1.12-1.33) μL/vial; LC50 (95% CL) ([9]; 4th stage nymphs): 2.39 (2.19-2.60) μL/vial; LC50 (95% CL) ([9]; 5th stage nymphs): 1.77 (1.60-1.93) μL/vial
4 | C=COC(=O)c1ccccc1 [VB, vinyl benzoate] | 0.017 (0.010-0.024) mg/cm^2 | 0.065 (0.059-0.071) mg/cm^2 |  | powerful fumigant toxicities |  | 0 | 0 | 0 | 1.131 (0.757-1.337) μL/vial |  |  |  |  |  | 0.95 µg/mL (≈ 6.41 µM) | 0.77 µg/mL (≈ 5.2 µM) | 0.96 µg/mL (≈ 6.48 µM) | 0.89 µg/mL (≈ 6.01 µM) | ~100% |  | ovicidal toxicity against P. xylostella eggs (in words) [10]: highest toxicity; larvicidal toxicity against L. dispar (in words) [2]: highest larvicidal toxicity; times more toxic than commercial pesticide acetamiprid ([2]; ratio of LC50 values): 3.4 times; times more toxic than commercial pesticide pyriproxyfen ([2]; ratio of LC50 values): 1.3 times
5 | CCCCCCOC(=O)c1ccccc1 [nHB, n-hexyl benzoate] |  |  |  |  |  | 33.7(7.4) | 7.0(1.0) | 40.3(7.0) |  | 37.1 μg/ant | 42.23 μg/ant | 28.64 μg/ant |  |  |  |  |  |  |  | neither known OSHA hazards nor aquatic toxicity | larvicidal toxicity against L. dispar (in words) [2]: did not show any toxicities; insecticidal toxicity against D. suzukii (in words) ([5]; 1% concentration on 4 days pre-infested blueberries, 10 days incubation): did not show any insecticidal activities; toxicity against H. halys nymphs (in words) ([6]; in vivo): did not show toxicities; contact toxicity against S. invicta (in words) ([7]; in vivo): comparable results; also recorded: potent contact toxicities
